Measurements as given in patent publication US11065209B2, “Use of cannabidiol in the treatment of epilepsy” (GW Research Limited, priority 2015, dated 2021).
Several values for one entry are separate records, joined by “and”; a condition that tells them apart may be missing. Identical values can stand only once. Entries after “also recorded” stand apart in the source; their conditions may differ.

Key:
[1] = tested on: seizures in a child with Lennox-Gastaut syndrome; settings: CBD in an oily solution; cited from earlier work
[2] = Solubility of the drug substance in water; format: physicochemical
Text: The drug substance, CBD is insoluble in water. Sesame oil was selected as an excipient to solubilize the drug substance.

[3] = tested on: seizures in adult patients; settings: 200 mg/day of pure CBD; four adult patients; cited from earlier work
[4] = tested on: seizures in adult patients with generalized epilepsy; settings: eight adult patients with generalized epilepsy; cited from earlier work
[5] = tested on: seizures in patients with Tuberous Sclerosis Complex (TSC); test: Expanded access compassionate use program: CBD added to baseline AED in children and young adults with treatment-resistant Tuberous Sclerosis Complex, seizure diaries; format: in vivo, human
Method: The terms “50% responder” and “50% reduction in seizure” are both terms used in clinical studies. In the present application the terms define the percentage of subjects that experienced a greater than or equal to 50% reduction in the total number of seizures during treatment with CBD in comparison to the number experienced during the baseline period before the CBD was administered.
These subjects were tested with a highly purified extract of cannabidiol (CBD) obtained from a cannabis plant. The participants in the study were part of an expanded access compassionate use program for CBD.
All of these patients diagnosed with TSC presented with one or more types of seizure including tonic, tonic-clonic, atonic, absence, focal seizures with impairment and focal seizures which evolve to secondary generalised seizures.
All patients entered a baseline period of 4 weeks when parents/caregivers kept prospective seizure diaries, noting all countable seizure types.
The patients then received a highly purified CBD extract (greater than 98% CBD w/w) in sesame oil, of known and constant composition, at a dose of 5 mg/kg/day in addition to their baseline anti-epileptic drug (AED) regimen.
Laboratory testing for hematologic, liver, kidney function, and concomitant AED levels was performed at baseline, and after CBD therapy.
All patients were taking at least two concomitant anti-epileptic drugs. These included clobazam; diazepam; lacosamide; lamotrigine; levetiracetam; lorazepam; nordiazepam; n-desmethylclobazam; phenytoin; valproic acid; zonisamide. The average number of concomitant antiepileptic drugs being taken was 2.7. The majority took either clobazam and/or valproic acid.
There were 12 children and young adult patients who received at least 3 months of treatment all of whom suffered from treatment-resistant epilepsy with a diagnosis of Tuberous Sclerosis Complex (TSC).

[6] = tested on: seizures in mice; settings: after pro-convulsant drugs or an electric current; cited from earlier work
[7] = tested on: seizures in institutionalized adult patients; settings: 200 mg/day of pure CBD; twelve institutionalized adult patients; open label; cited from earlier work
[8] = tested on: seizures; settings: as described in the literature; cited from earlier work
[9] = share of patients, n = 2, after 12 weeks of treatment
[10] = share of patients, n = 3, after 12 weeks of treatment
[11] = share of patients, n = 5, after 12 weeks of treatment
[12] = share of patients, n = 10, after 12 weeks of treatment
[13] = share of patients, n = 14, after 12 weeks of treatment

C=C(C)[C@@H]1CCC(C)=C[C@H]1c1c(O)cc(CCCCC)cc1O [CBD, cannabidiol]
seizure frequency [1]: improvement | solubility in water [2]: insoluble | patients who became seizure free [3]: two of the four | patients with a marked reduction of seizures [4]: 4 | patients with at least a fifty percent reduction in the total number of seizures ([5]; TSC patients resistant to existing AED): half of the patients | patients treated in whom total seizure frequency was reduced ([5]; TSC patients, 12 treated): over 80% | effect on incidence of generalised seizure types tonic, atonic, tonic-clonic and absence seizures ([5]; TSC patients, result in words): dramatically reduce; also recorded: virtually eliminate | effect on the number of focal seizures with impairment ([5]; TSC patients, result in words): markedly reduced | TSC patients with a decrease in total seizure frequency ([5]; after 3 months of therapy, 12 patients): ten out of 12 | >50% reduction in seizures (total number of seizures) ([5]; individual TSC subjects 1-12, after 12 weeks treatment): Yes (6×) and No (6×) | Change in baseline (%) for total number of seizures ([5]; individual TSC subjects 1-12, after 12 weeks treatment, CBD 5 up to 25 mg/kg/day added to AED): −93.7% and −15.0% and −71.0% and −33.5% and −80.2% and 0.4% and −100.0% and −9.8% and −74.4% and 108.0% and −39.2% and −63.2% | TSC patients with a greater than 50% reduction in total seizures ([5]; over the 12 weeks of treatment, 12 patients): six of the 12 | effect on the number of seizures ([5]; patients that do not respond well to existing AED, result in words): significantly reduces | <50% reduction in seizures, absence seizures [5, 9]: 0% | <50% reduction in seizures, focal seizures evolving to secondary generalisation [5, 9]: 50% | <50% reduction in seizures, tonic-clonic seizures [5, 9]: 0% | >50% reduction in seizures, absence seizures [5, 9]: 100% | >50% reduction in seizures, focal seizures evolving to secondary generalisation [5, 9]: 50% | >50% reduction in seizures, tonic-clonic seizures [5, 9]: 100% | <50% reduction in seizures, atonic seizures [5, 10]: 0% | >50% reduction in seizures, atonic seizures [5, 10]: 100% | <50% reduction in seizures, tonic seizures [5, 11]: 25% | >50% reduction in seizures, tonic seizures [5, 11]: 75% | <50% reduction in seizures, focal seizures with impairment [5, 12]: 45% | >50% reduction in seizures, focal seizures with impairment [5, 12]: 55% | <50% reduction in seizures, total focal seizures [5, 13]: 55% | >50% reduction in seizures, total focal seizures [5, 13]: 45% | average reduction in the total number of seizures in the responders ([5]; the patients with at least 50% reduction, 12 weeks of treatment): 80.4% and 80% | prevention of seizures [6]: able to prevent seizures | controlling seizures [7]: ineffective

CCCCCc1cc(O)c2c(c1)OC(C)(C)[C@@H]1CCC(C)=C[C@@H]21 [THC, tetrahydrocannabinol]
effect on seizures [8]: pro-convulsant
